Results on 14 compounds are retold here after patent US6262073A, “Pharmaceutical methods of use of 5-substituted and 5,5 disubstituted-3,4-dihydroxy-2(5H)-furanones” (Oxis International Inc., priority 2000, dated 2001).

Structures are written as SMILES.

What all share (format): biochemical
Assay [1] deals with T1, Cyclooxygenase-1 (cyclooxygenase from ram seminal vesicles) (Ovis aries, UniProt P05979).
T1 construct: cyclooxygenase from ram seminal vesicles; from tissue; host or cells: ram seminal vesicles
T1 sequence (P05979 25-600): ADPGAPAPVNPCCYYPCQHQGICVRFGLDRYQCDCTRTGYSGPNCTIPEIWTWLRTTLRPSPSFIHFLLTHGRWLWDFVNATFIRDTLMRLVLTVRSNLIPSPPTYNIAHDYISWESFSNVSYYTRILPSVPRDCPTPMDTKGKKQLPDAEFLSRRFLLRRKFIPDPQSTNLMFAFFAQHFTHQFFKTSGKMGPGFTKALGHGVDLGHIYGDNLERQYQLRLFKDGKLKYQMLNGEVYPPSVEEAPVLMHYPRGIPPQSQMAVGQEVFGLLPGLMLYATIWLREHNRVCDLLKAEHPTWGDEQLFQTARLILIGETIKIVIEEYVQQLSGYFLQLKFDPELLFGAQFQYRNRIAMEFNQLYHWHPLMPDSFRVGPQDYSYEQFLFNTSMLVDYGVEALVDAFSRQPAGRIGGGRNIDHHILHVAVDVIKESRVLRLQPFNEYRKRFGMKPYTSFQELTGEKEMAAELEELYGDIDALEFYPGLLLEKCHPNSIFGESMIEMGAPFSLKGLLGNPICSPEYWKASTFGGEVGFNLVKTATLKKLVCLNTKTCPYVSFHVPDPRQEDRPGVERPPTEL
Briefly: Cyclooxygenase-1 screen (COX-1). The conditions noted are these: 300 μM. How it is done: (§1) The compounds of the invention were screened for their anti-inflammatory activity using a series of in vitro tests the details of which are given below. The activity of various compounds against 5-lipoxygenase, cycloxygenase-1, cycloxygenase-2 and lipid peroxidase was evaluated. Results of the screening procedures are included in TABLE I, and the activity against 5-lipoxygenase at a test concentration of 1 μM in Table II.
Cyclooxygenase-1 is involved in the formation of prostaglandins and thromboxane via the oxidative metabolism of arachidonic acid. Briefly, cyclooxygenase from ram seminal vesicles is incubated with arachidonic acid (100 μm) for 2 minutes at 37° C. in the presence or absence of test compounds according to the methods of A. T. Evans et al., Biochem. Pharm. 36:2035-2037(1987) and R. Boopathy et al., Biochem J. 239:371-377 (1968). The assay is terminated by the addition of trichioroacetic acid and cyclooxygenase activity is determined by reading the absorbance at 530 nm. […]

Assay [2] has as its system Lipid peroxidation (rat liver microsomes). The assay can be described thus: Lipid peroxidation screen (LPO), CCl4-induced, liver microsomes. The conditions noted are these: for LPO percent inhibition: 300 μM. How it is done: as §1
Lipid peroxidation is a consequence of various stimuli, including reactive free radicals. Polyunsaturated fatty acids associated with plasma membranes are degraded due to enzymatic induction by reactive agents such as CCl4, leading to cellular damage. Briefly, microsomes are prepared from rat livers and the protein concentration is determined according to the method of D. Mansuy et al., Biochem. Biophys. Res. Comm. 135:1015-1021(1986). A reaction mixture consisting of 2 mg of the microsomal preparation, an NADPH generating system, 20 mM CCl4 and test compound are incubated for 12 minutes at 37° C. The reaction is terminated by the addition of a mixture of thiobarbituric acid and trichloroacetic acid. The absorbance is read at 535 nm and is proportional to the concentration of malondialdehyde. Compounds are screened at 300 μM.
On the technique in general: Liver microsomes are vesicles of endoplasmic reticulum, rich in cytochrome P450 enzymes.

In assay [3] the target is T2, Cyclooxygenase-2 (prostaglandin H synthetase-2) from sheep placenta (Ovis aries, UniProt P79208).
T2 construct: cyclooxygenase-2 from sheep placenta; from tissue; host or cells: sheep placenta
T2 sequence (P79208 17-603): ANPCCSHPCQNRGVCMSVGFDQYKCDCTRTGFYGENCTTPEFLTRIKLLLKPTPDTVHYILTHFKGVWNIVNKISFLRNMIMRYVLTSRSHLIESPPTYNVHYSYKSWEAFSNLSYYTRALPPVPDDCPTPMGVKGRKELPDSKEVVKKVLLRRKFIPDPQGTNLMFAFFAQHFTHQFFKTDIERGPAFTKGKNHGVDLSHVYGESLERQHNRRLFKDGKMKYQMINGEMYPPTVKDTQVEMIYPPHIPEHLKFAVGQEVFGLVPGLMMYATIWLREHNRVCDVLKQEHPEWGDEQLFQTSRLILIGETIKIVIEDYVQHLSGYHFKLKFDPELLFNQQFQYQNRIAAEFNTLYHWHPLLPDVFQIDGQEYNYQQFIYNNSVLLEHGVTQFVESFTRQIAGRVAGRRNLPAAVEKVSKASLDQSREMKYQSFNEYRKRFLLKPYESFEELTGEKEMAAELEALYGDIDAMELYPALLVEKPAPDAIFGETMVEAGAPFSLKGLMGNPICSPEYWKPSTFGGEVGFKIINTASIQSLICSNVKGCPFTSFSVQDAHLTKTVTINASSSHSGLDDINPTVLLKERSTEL
The assay can be described thus: Cyclooxygenase-2 screen (COX-2). The note with it: read-out: COX-2 percent inhibition. Here is the method: as §1
Cyclooxygenase-2, also known as prostaglandin H synthetase-2, catalyzes the rate- limiting step in the synthesis of inflammatory prostaglandins. In this reaction cyclooxygenase-2 catalyzes the oxygenation of unesterified precursors to form cyclic endoperoxide derivatives, including prostaglandin H. Briefly, cyclooxygenase-2 from sheep placenta, 14 μg/assay tube, is incubated with arachidonic acid (500 μM) for 1.5 minutes at 27° C. in the absence or presence of test compounds according to the methods of A. T. Evans, et al., Biochem Pharm. […] Res. Comm. […] Compounds are screened at 300 μM.

For assay [4], the target named is T3, 5-Lipoxygenase (crude enzyme preparation from rat basophilic leukemia cells, RBL-1) (Rattus norvegicus, UniProt P12527).
T3 construct: crude enzyme preparation from rat basophilic leukemia cells (RBL-1); endogenous in cells; host or cells: rat basophilic leukemia cells (RBL-1)
T3 sequence (P12527 1-673): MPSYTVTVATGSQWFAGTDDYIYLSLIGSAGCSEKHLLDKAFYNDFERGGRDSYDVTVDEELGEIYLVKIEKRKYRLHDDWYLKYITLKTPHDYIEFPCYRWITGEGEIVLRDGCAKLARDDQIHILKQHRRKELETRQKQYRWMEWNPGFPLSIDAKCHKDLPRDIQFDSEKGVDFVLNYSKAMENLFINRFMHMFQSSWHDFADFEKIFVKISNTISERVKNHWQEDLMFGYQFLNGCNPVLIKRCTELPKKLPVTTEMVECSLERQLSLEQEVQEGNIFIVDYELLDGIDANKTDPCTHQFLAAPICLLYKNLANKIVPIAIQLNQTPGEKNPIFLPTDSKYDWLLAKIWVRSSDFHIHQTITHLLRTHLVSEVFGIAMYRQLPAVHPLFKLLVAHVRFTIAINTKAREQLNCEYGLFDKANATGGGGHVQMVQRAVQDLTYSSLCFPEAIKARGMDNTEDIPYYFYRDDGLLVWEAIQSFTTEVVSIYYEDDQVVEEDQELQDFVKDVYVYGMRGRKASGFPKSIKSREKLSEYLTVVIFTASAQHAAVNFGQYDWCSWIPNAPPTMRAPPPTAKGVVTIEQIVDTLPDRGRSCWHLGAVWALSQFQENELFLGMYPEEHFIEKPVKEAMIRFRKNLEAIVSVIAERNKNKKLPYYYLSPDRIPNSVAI
Briefly: 5-Lipoxygenase screen (5-LO), 5-HETE by RIA. The note with it: for inhibition at 30 µM: read-out: 5-LO percent inhibition; for inhibition at 1 µM: read-out: Percent inhibition of 5-LO, test conc. 1 μM (Table II). How it is done: as §1
5-Lipoxygenase catalyzes the oxidative metabolism of arachidonic acid to […] (5-HETE), the initial reaction leading to the formation of the leukotrienes. Briefly, the testing procedure utilizes a crude enzyme preparation from rat basophilic leukemia cells (RBL-1) according to the methods of T. Shimuzu et al. Pro. […] Test compounds are pre-incubated with the enzyme preparation for 5 minutes at room temperature and the reaction is initiated by the addition of arachidonic acid. Following an 8 minute incubation at room temperature, the reaction is terminated by the addition of citric acid and concentrations of 5-HETE are determined by RIA. Compounds are screened at 30 μM.

As a reminder, the inhibition is the change of the read-out against control, counted positive when it falls. For `CC1(c2ccc(Cl)cc2)OC(=O)C(O)=C1O` (stereo not shown) [Example 4, 5-(4-Chlorophenyl)-3,4-dihydroxy-5-methyl-2(5H)-furanone], in assay [1], the COX-1 percent inhibition was determined as 2%. In addition, the LPO percent inhibition in assay [2] is listed as 54%. For the same compound, the inhibition at 300 µM in assay [3] was determined as 24%. The inhibition at 30 µM in assay [4] worked out at 2%.

Consider `CCC/C=C\Cc1ccccc1/C=C\CCC1OC(=O)C(O)=C1O` (stereo not shown) [Example 40], for which the COX-1 percent inhibition in assay [1] is reported as 38%. For the same compound, the LPO percent inhibition in assay [2] stood at 65%. Besides, the inhibition at 300 µM in assay [3] worked out at 25%. Further, in assay [4], the inhibition at 30 µM is 99%.

In assay [1], `CCCSCc1ccccc1C#CCCC1OC(=O)C(O)=C1O` (stereo not shown) [Example 33, 3,4-Dihydroxy-5-[(4-(2-(propylthio)methyl)phenyl)-3-butynyl]-2(5H)-furanone] yielded a COX-1 percent inhibition of 37%. The compound also showed an LPO percent inhibition in assay [2] of 74%. For the same compound, the inhibition at 300 µM in assay [3] was determined as 20%. The inhibition at 30 µM in assay [4] amounted to 84%.

As for `O=C1OC(CCOc2ccccc2Cc2ccccc2)C(O)=C1O` (stereo not shown) [Example 21, 3,4-Dihydroxy-5-[2-(diphenylmethane-2-oxy)ethyl]-2(5H)-furanone], in assay [1], the COX-1 percent inhibition came out at 12%. In addition, the LPO percent inhibition in assay [2] was 68%. The inhibition at 300 µM in assay [3] came out at 10%. Also, in assay [4], the inhibition at 30 µM amounted to 101% and the inhibition at 1 µM is 62%.

Turning to `O=C1OC(CCOc2ccc3ccccc3n2)C(O)=C1O` (stereo not shown) [Example 23, 3,4-Dihydroxy-5-[2-(quinoline-2-oxy)ethyl]-2(5H)-furanone], the inhibition at 300 µM in assay [3] is -2%. The inhibition at 30 µM in assay [4] is 93%.

As for `O=C1OC(CCOc2ccc3oc(-c4ccccc4)cc(=O)c3c2)C(O)=C1O` (stereo not shown) [Example 16, 3,4-Dihydroxy-5-[2-(flavone-6-oxy)ethyl]-2(5H)-furanone], the COX-1 percent inhibition in assay [1] was determined as 17%. For the same compound, in assay [2], the LPO percent inhibition worked out at 76%. Moreover, the inhibition at 300 µM in assay [3] came out at 2%. In addition, in assay [4], the inhibition at 30 µM is 100% and the inhibition at 1 µM was determined as 54%.

`CCCCCSCc1ccccc1C#CCCC1OC(=O)C(O)=C1O` (stereo not shown) [Example 34, 3,4-Dihydroxy-5-[(4-(2-(1-pentylthio)methyl)phenyl)-3-butynyl]-2(5H)-furanone] displayed a COX-1 percent inhibition in assay [1] of 67%. The compound also had an LPO percent inhibition in assay [2] of 63%. The inhibition at 300 µM in assay [3] turned out to be 43%. Also, the inhibition at 30 µM in assay [4] was 92%.

For orientation: IC50 means the point on the concentration scale where inhibition reaches its midpoint. A lower IC50 goes with greater potency in that assay. In assay [2] (reference compound under screen conditions), `Cc1c(C)c2c(c(C)c1O)CCC(C)(CCCC(C)CCCC(C)CCCC(C)C)O2` (stereo not drawn) [alpha-tocopherol, reference compound] showed an IC50 of 280 µM.

`O=C1OC(CCOc2ccc3oc4ccccc4c3c2)C(O)=C1O` (stereo not shown) [Example 17, 5-[2-(Dibenzofuran-2-oxy)ethyl]-3,4-dihydroxy-2(5H)-furanone] showed a COX-1 percent inhibition in assay [1] of 17%. Besides, the LPO percent inhibition in assay [2] is 74%. Also, the inhibition at 300 µM in assay [3] was 21%. In assay [4], the inhibition at 30 µM was 99% and the inhibition at 1 µM stood at 60%.

`Cc1ccccc1C#CCCC1OC(=O)C(O)=C1O` (stereo not shown) [Example 28, 3,4-Dihydroxy-5-[(4-(2-methyl)phenyl)-3-butynyl]-2(5H)-furanone]: in assay [1], the COX-1 percent inhibition was determined as 4%. In addition, the LPO percent inhibition in assay [2] amounted to 61%. Also, the inhibition at 300 µM in assay [3] turned out to be 15%. Also, in assay [4], the inhibition at 30 µM stood at 58%.

In assay [1], `CCCS(=O)(=O)Cc1ccccc1C#CCCC1OC(=O)C(O)=C1O` (stereo not shown) [Example 35, 3,4-Dihydroxy-5-[(4-(2-(propylsulfonyl)methyl)phenyl)-3-butynyl]-2(5H)-furanone] showed a COX-1 percent inhibition of 25%. Also, in assay [2], the LPO percent inhibition was 60%. For the same compound, the inhibition at 300 µM in assay [3] came to 13%. The inhibition at 30 µM in assay [4] is 30%.

In assay [1], `O=C1OC(CCN2C(=O)c3cccc4cccc(c34)C2=O)C(O)=C1O` (stereo not shown) [Example 19, 3,4-Dihydroxy-5-[2-(1,8-naphthalimide)-N-ethyl]-2(5H)-furanone] gave a COX-1 percent inhibition of 9%. Further, the LPO percent inhibition in assay [2] came out at 68%. For the same compound, the inhibition at 300 µM in assay [3] came out at 2%. For the same compound, the inhibition at 30 µM in assay [4] turned out to be 86%.

For `O=C1OC(CCC#Cc2ccccc2)C(O)=C1O` (stereo not shown) [Example 27, 3,4-Dihydroxy-5-[(4-phenyl)-3-butynyl]-2(5H)-furanone], the COX-1 percent inhibition in assay [1] is recorded as 5%. In assay [2], this compound came in with an LPO percent inhibition of 59%. Also, the inhibition at 300 µM in assay [3] was 20%. Also, the inhibition at 30 µM in assay [4] was determined as 42%.

In assay [1], `O=C1OC(CCSc2ccc3ccccc3c2)C(O)=C1O` (stereo not shown) [Example 26, 3,4-Dihydroxy-5-[2-(naphthyl-2-thio)ethyl]-2(5H)-furanone] displayed a COX-1 percent inhibition of 12%. The compound also returned an LPO percent inhibition in assay [2] of 77%. In addition, the inhibition at 300 µM in assay [3] was 12%. Besides, in assay [4], the inhibition at 30 µM came to 101% and the inhibition at 1 µM is 54%.
